Assay results reported in article PMC5814754, “Quantitative, Wide-Spectrum Kinase Profiling in Live Cells for Assessing the Effect of Cellular ATP on Target Engagement” (Cell Chemical Biology, 2018).
One block for each compound: values may come before it.

Key:
Assay in all cases: Apparent affinity (EC50) of energy transfer probes by titration onto live HEK293 cells expressing kinase/Nluc fusions (Table S1)
Format in all cases: binding
[1] = target: full-length kinase/Nluc fusion proteins (Homo sapiens, UniProt P57059); conditions: SIK1 (NP_001307572), Nluc orientation N; read-out: Probe EC50
Sequence of full-length kinase/Nluc fusion proteins (Homo sapiens, UniProt P57059) (P57059 whole entry, the tested form may be a part): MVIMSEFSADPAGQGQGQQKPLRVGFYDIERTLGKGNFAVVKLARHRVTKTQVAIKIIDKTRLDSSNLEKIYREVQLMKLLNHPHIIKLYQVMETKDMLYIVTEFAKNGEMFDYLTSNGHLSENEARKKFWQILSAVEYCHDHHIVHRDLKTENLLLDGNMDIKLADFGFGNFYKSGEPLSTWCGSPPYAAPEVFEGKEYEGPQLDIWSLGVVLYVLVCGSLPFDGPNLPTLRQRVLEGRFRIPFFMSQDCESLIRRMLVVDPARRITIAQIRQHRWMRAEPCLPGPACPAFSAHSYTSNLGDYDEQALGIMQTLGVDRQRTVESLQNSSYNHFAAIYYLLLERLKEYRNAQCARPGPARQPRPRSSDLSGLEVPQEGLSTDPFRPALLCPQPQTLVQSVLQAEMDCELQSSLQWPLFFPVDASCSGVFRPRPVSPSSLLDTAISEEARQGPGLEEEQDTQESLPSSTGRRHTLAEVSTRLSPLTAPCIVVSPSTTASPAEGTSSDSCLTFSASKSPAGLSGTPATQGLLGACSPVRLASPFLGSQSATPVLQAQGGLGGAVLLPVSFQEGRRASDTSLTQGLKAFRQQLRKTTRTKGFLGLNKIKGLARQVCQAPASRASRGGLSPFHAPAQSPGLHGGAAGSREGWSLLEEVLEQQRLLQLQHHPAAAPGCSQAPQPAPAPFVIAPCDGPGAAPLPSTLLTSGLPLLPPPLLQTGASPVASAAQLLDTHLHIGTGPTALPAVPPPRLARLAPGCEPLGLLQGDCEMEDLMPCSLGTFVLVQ

[2] = target: full-length kinase/Nluc fusion proteins (Homo sapiens, UniProt Q9Y2K2); conditions: SIK3 (NP_079440), Nluc orientation N; read-out: Probe EC50
Sequence of full-length kinase/Nluc fusion proteins (Homo sapiens, UniProt Q9Y2K2) (Q9Y2K2 whole entry, the tested form may be a part): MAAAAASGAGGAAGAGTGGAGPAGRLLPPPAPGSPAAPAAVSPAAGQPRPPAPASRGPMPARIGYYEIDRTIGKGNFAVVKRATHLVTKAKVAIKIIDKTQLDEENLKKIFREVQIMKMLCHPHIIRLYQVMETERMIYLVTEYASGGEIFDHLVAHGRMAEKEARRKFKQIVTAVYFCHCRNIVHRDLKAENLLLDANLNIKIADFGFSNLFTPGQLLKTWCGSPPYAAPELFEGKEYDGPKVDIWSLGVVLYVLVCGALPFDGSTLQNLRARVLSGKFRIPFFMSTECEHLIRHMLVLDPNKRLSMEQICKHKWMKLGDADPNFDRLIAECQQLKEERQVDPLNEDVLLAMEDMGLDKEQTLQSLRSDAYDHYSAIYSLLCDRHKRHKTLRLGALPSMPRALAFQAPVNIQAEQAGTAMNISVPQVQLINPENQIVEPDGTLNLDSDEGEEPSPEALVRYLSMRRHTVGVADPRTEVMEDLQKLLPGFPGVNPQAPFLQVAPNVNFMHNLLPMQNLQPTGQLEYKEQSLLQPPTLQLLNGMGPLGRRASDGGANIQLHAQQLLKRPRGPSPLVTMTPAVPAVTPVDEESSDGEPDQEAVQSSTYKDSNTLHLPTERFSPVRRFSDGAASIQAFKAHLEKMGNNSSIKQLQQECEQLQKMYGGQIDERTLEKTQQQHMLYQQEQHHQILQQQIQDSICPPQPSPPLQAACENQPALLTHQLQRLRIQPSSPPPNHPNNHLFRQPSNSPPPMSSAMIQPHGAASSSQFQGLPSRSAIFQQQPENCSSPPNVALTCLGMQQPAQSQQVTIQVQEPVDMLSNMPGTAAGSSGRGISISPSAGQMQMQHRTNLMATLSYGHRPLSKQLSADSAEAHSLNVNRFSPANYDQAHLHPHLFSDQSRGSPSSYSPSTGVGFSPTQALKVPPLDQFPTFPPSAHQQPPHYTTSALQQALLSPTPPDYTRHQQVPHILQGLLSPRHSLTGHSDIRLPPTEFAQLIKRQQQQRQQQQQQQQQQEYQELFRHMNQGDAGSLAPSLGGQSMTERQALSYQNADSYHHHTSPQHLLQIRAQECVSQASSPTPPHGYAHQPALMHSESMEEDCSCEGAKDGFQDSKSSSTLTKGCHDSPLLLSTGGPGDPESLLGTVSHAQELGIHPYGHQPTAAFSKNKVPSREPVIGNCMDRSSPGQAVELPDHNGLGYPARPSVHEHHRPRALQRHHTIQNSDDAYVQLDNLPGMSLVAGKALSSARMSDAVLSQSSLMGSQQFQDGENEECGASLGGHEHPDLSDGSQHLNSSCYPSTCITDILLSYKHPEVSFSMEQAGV

[3] = target: full-length kinase/Nluc fusion proteins (Homo sapiens, UniProt P51451); conditions: BLK, Nluc N; read-out: Probe EC50
[4] = target: full-length kinase/Nluc fusion proteins (Homo sapiens, UniProt Q16539); conditions: MAPK14, Nluc C; read-out: Probe EC50
[5] = target: full-length kinase/Nluc fusion proteins (Homo sapiens, UniProt P42681); conditions: TXK (NP_003319), Nluc orientation C; read-out: Probe EC50
[6] = target: full-length kinase/Nluc fusion proteins (Homo sapiens, UniProt O43353); conditions: RIPK2 (NP_003812), Nluc orientation N; read-out: Probe EC50
[7] = target: full-length kinase/Nluc fusion proteins (Homo sapiens, UniProt Q15759); conditions: MAPK11, Nluc N; read-out: Probe EC50
Sequence of full-length kinase/Nluc fusion proteins (Homo sapiens, UniProt Q15759) (Q15759 whole entry, the tested form may be a part): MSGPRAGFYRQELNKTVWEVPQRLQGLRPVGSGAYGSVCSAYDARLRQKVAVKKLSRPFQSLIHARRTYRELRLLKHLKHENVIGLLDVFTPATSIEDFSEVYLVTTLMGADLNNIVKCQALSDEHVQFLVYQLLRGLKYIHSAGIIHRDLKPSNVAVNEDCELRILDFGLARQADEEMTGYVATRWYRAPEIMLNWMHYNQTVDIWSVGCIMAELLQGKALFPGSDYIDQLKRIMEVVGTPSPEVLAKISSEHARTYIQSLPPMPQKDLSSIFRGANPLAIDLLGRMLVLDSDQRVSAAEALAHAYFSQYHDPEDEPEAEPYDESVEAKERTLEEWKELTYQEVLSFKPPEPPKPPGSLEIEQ

[8] = target: full-length kinase/Nluc fusion proteins (Homo sapiens, UniProt Q9H0K1); conditions: SNF1LK2 (NP_056006), Nluc orientation N; read-out: Probe EC50
[9] = target: full-length kinase/Nluc fusion proteins (Homo sapiens, UniProt P54764); conditions: EPHA4, Nluc C; read-out: Probe EC50
[10] = target: full-length kinase/Nluc fusion proteins (Homo sapiens, UniProt Q15418); conditions: RPS6KA1 (NP_002944), Nluc orientation N; read-out: Probe EC50
[11] = target: full-length kinase/Nluc fusion proteins (Homo sapiens, UniProt Q9H1R3); conditions: MYLK2, Nluc C; read-out: Probe EC50
[12] = target: full-length kinase/Nluc fusion proteins (Homo sapiens, UniProt Q13627); conditions: DYRK1A, Nluc N; read-out: Probe EC50
[13] = target: full-length kinase/Nluc fusion proteins (Homo sapiens, UniProt O14936); conditions: CASK, Nluc N; read-out: Probe EC50
[14] = target: full-length kinase/Nluc fusion proteins (Homo sapiens, UniProt Q13237); conditions: PRKG2, Nluc C; read-out: Probe EC50
[15] = target: full-length kinase/Nluc fusion proteins (Homo sapiens, UniProt P22607); conditions: FGFR3, Nluc C; read-out: Probe EC50
[16] = target: full-length kinase/Nluc fusion proteins (Homo sapiens, UniProt Q12866); conditions: MERTK, Nluc C; read-out: Probe EC50
Sequence of full-length kinase/Nluc fusion proteins (Homo sapiens, UniProt Q12866) (Q12866 21-999): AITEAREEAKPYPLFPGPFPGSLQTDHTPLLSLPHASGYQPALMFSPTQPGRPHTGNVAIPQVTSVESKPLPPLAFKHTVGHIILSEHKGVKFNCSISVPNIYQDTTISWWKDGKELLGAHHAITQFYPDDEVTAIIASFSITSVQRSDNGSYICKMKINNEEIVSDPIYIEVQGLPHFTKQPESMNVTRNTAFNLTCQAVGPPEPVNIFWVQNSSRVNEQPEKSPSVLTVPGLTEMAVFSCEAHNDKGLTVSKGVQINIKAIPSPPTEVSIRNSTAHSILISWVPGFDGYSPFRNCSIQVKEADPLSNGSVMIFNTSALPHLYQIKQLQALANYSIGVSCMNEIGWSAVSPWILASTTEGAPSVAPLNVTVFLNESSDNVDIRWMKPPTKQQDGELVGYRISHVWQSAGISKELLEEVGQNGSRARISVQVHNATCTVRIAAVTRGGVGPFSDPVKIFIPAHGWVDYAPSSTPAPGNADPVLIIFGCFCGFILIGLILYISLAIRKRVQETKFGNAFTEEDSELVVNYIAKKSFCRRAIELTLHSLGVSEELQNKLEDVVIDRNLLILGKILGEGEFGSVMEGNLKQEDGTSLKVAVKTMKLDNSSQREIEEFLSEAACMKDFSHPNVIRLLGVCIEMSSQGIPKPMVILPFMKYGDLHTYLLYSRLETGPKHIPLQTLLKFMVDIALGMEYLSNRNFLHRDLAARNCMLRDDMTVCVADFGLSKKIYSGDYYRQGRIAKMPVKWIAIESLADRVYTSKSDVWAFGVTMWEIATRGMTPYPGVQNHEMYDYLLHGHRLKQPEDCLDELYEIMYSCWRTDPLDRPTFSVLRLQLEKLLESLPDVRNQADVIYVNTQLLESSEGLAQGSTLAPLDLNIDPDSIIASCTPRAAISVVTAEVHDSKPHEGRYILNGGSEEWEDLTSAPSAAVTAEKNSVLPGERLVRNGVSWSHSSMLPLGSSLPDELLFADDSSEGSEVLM

[17] = target: full-length kinase/Nluc fusion proteins (Homo sapiens, UniProt Q5S007); conditions: LRRK2, Nluc C; read-out: Probe EC50
[18] = target: full-length kinase/Nluc fusion proteins (Homo sapiens, UniProt Q06187); conditions: BTK, Nluc C; read-out: Probe EC50
[19] = target: full-length kinase/Nluc fusion proteins (Homo sapiens, UniProt Q02156); conditions: PRKCE, Nluc C; read-out: Probe EC50
[20] = target: full-length kinase/Nluc fusion proteins (Homo sapiens, UniProt Q12852); conditions: MAP3K12, Nluc N; read-out: Probe EC50
[21] = target: full-length kinase/Nluc fusion proteins (Homo sapiens, UniProt P11309); conditions: PIM1, Nluc C; read-out: Probe EC50
Sequence of full-length kinase/Nluc fusion proteins (Homo sapiens, UniProt P11309) (P11309 whole entry, the tested form may be a part): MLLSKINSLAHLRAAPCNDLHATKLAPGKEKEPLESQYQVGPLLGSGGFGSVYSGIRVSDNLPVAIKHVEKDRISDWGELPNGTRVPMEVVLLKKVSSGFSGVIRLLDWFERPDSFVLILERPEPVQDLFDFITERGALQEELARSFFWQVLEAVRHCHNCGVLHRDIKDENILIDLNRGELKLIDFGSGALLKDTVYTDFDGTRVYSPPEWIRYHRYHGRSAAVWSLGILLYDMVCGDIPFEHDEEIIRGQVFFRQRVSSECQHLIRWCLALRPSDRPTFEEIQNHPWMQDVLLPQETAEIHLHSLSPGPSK

[22] = target: full-length kinase/Nluc fusion proteins (Homo sapiens, UniProt Q2M2I8); conditions: AAK1, Nluc N; read-out: Probe EC50
[23] = target: full-length kinase/Nluc fusion proteins (Homo sapiens, UniProt Q9P286); conditions: PAK7, Nluc C; read-out: Probe EC50
[24] = target: full-length kinase/Nluc fusion proteins (Homo sapiens, UniProt O00444); conditions: PLK4, Nluc N; read-out: Probe EC50
[25] = target: full-length kinase/Nluc fusion proteins (Homo sapiens, UniProt P11362); conditions: FGFR1, Nluc C; read-out: Probe EC50
[26] = target: full-length kinase/Nluc fusion proteins (Homo sapiens, UniProt Q13470); conditions: TNK1 (NP_003976), Nluc orientation N; read-out: Probe EC50
[27] = target: full-length kinase/Nluc fusion proteins (Homo sapiens, UniProt P07949); conditions: RET, Nluc C; read-out: Probe EC50
[28] = target: full-length kinase/Nluc fusion proteins (Homo sapiens, UniProt Q9BYT3); conditions: STK33 (NP_001275990), Nluc orientation N; read-out: Probe EC50
Sequence of full-length kinase/Nluc fusion proteins (Homo sapiens, UniProt Q9BYT3) (Q9BYT3 whole entry, the tested form may be a part): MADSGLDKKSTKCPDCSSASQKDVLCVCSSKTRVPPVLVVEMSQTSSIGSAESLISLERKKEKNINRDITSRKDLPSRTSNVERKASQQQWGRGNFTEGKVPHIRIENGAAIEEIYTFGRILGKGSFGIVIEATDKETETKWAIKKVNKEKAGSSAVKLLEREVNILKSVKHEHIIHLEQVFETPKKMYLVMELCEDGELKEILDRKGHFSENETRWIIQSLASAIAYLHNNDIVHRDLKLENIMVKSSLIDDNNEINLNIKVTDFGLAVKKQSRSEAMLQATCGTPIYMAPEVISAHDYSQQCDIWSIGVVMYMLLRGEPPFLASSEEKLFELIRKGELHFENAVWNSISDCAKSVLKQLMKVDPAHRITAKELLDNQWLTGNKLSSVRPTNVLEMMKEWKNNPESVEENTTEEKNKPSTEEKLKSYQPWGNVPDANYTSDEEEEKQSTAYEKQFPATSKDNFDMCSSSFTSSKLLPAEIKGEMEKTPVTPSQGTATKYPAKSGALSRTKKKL

[29] = target: full-length kinase/Nluc fusion proteins (Homo sapiens, UniProt P29597); conditions: TYK2 (NP_003322), Nluc orientation C; read-out: Probe EC50
[30] = target: full-length kinase/Nluc fusion proteins (Homo sapiens, UniProt Q9UHD2); conditions: TBK1 (NP_037386), Nluc orientation N; read-out: Probe EC50
Sequence of full-length kinase/Nluc fusion proteins (Homo sapiens, UniProt Q9UHD2) (Q9UHD2 whole entry, the tested form may be a part): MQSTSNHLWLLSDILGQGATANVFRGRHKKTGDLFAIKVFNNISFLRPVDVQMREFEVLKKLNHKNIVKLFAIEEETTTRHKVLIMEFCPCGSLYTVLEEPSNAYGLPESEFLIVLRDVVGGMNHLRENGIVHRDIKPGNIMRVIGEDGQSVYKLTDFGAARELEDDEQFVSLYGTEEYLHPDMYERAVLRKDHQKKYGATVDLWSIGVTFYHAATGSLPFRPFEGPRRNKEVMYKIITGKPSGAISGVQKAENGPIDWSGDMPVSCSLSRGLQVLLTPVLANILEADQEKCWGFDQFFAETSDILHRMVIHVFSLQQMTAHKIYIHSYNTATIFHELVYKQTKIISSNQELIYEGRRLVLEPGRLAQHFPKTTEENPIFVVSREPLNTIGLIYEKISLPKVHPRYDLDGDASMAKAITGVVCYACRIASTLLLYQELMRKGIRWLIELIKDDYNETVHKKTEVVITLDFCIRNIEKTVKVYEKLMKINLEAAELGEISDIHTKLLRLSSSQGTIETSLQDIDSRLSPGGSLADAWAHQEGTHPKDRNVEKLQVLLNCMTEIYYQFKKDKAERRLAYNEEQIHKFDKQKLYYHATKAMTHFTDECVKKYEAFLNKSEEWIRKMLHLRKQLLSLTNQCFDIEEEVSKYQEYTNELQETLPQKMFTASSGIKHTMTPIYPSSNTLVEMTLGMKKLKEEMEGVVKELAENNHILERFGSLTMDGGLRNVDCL

[31] = target: full-length kinase/Nluc fusion proteins (Homo sapiens, UniProt P36888); conditions: FLT3, Nluc C; read-out: Probe EC50

EC50 [1]: 100 nM
EC50 [2]: > 1000 nM
EC50 [3]: 300 nM
EC50 [4]: 80 nM
EC50 [5]: 100 nM
EC50 [6]: 200 nM
EC50 [7]: 200 nM
EC50 [8]: 100 nM
EC50 [9]: 40 nM
SMILES: Cc1nc(Nc2ncc(C(=O)Nc3c(C)cccc3Cl)s2)cc(N2CCN(CCOCCNC(=O)CCc3ccc4n3[B-](F)(F)[N+]3=C(c5ccc[nH]5)C=CC3=C4)CC2)n1 [Energy Transfer Probe 6, 2-((6-(4-(2-(2-aminoethoxy)ethyl)piperazin-1-yl)-2-methylpyrimidin-4-yl)amino)-N-(2-chloro-6-methylphenyl)thiazole-5-carboxamide-NanoBRET 590]

EC50 [10]: 200 nM
EC50 [11]: > 1000 nM
EC50 [12]: > 1000 nM
EC50 [13]: > 1000 nM
EC50 [14]: > 1000 nM
EC50 [15]: 500 nM
EC50 [16]: 300 nM
EC50 [17]: > 1000 nM
EC50 [18]: 600 nM
EC50 [19]: > 1000 nM
EC50 [20]: > 1000 nM
EC50 [21]: > 1000 nM
EC50 [22]: > 1000 nM
EC50 [23]: > 1000 nM
EC50 [24]: 400 nM
EC50 [25]: 600 nM
EC50 [26]: 50 nM
EC50 [27]: 500 nM
EC50 [28]: 400 nM
EC50 [29]: > 1000 nM
EC50 [30]: 400 nM
EC50 [31]: > 1000 nM
SMILES: CNC(=O)c1ccccc1Nc1nc(Nc2ccc(N3CCN(C(=O)CCOCCOCCOCCOCCNC(=O)CCc4ccc5n4[B-](F)(F)[N+]4=C(c6ccc[nH]6)C=CC4=C5)CC3)cc2)ncc1Cl [Energy Transfer Probe 5, 2-((2-((4-(4-(1-amino-3,6,9,12-tetraoxapentadecan-15-oyl)piperazin-1-yl)phenyl)amino)-5-chloropyrimidin-4-yl)amino)-N-methylbenzamide-NanoBRET 590]
